Data: PubChem BioAssay AID248 (DTP/NCI, 2004)
Where “and” joins values, the source holds several entries; their conditions need not be identical. Identical values can stand only once. Inconclusive results and toxic doses are left out. Cut-off read from the data, not from the text of the source: active = T/C of 150% or more; inactive = T/C below 125%.

Tested on: L1210 leukemia ip in BDF1 mice, survival T/C
Assay: NCI In Vivo Anticancer Drug Screen. Data for tumor model L1210 Leukemia (intraperitoneal) in B6D2F1 (BDF1) mice
Settings: endpoint: mean survival time, higher = longer survival
Procedure, shortened: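 Mice bearing the transplanted tumor received compound or vehicle. Survival of the treated group was divided by that of the vehicle-treated control group to give the ratio.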

[1] = dose: 100.0 mg/kg/injection, schedule: Q01DX009 (ip), vehicle: Klucel (hydroxypropylcellulose) (HPC)
[2] = dose: 200.0 mg/kg/injection, schedule: Q01DX009 (ip), vehicle: Klucel (hydroxypropylcellulose) (HPC)
[3] = dose: 400.0 mg/kg/injection, schedule: Q01DX009 (ip), vehicle: Klucel (hydroxypropylcellulose) (HPC)
[4] = dose: 100.0 mg/kg/injection, schedule: Q01DX001 (ip), vehicle: Klucel (hydroxypropylcellulose) (HPC)
[5] = dose: 200.0 mg/kg/injection, schedule: Q01DX001 (ip), vehicle: Klucel (hydroxypropylcellulose) (HPC)
[6] = dose: 400.0 mg/kg/injection, schedule: Q01DX001 (ip), vehicle: Klucel (hydroxypropylcellulose) (HPC)
[7] = dose: 100.0 mg/kg/injection, schedule: Q04DX003 (ip), vehicle: saline with Tween-80
[8] = dose: 200.0 mg/kg/injection, schedule: Q04DX003 (ip), vehicle: saline with Tween-80
[9] = dose: 100.0 mg/kg/injection, schedule: Q01DX001 (ip), vehicle: carboxymethylcellulose (CMC)
[10] = dose: 200.0 mg/kg/injection, schedule: Q01DX001 (ip), vehicle: carboxymethylcellulose (CMC)
[11] = dose: 400.0 mg/kg/injection, schedule: Q01DX001 (ip), vehicle: carboxymethylcellulose (CMC)
[12] = dose: 100.0 mg/kg/injection, schedule: Q01DX009 (ip), vehicle: saline
[13] = dose: 100.0 mg/kg/injection, schedule: Q04DX003 (ip), vehicle: saline
[14] = dose: 200.0 mg/kg/injection, schedule: Q01DX009 (ip), vehicle: saline
[15] = dose: 200.0 mg/kg/injection, schedule: Q04DX003 (ip), vehicle: saline
[16] = dose: 50.0 mg/kg/injection, schedule: Q01DX009 (ip), vehicle: Klucel (hydroxypropylcellulose) (HPC)
[17] = dose: 100.0 mg/kg/injection, schedule: Q04DX003 (ip), vehicle: Klucel (hydroxypropylcellulose) (HPC)
[18] = dose: 200.0 mg/kg/injection, schedule: Q04DX003 (ip), vehicle: Klucel (hydroxypropylcellulose) (HPC)
[19] = dose: 400.0 mg/kg/injection, schedule: Q04DX003 (ip), vehicle: Klucel (hydroxypropylcellulose) (HPC)

Measured: T/C

O=C1NC(=O)C2(N1)c1ccccc1-c1ccccc12
inactive: [1] 95 % of control | [2] 90 % of control | [3] 95 % of control

Cc1ccccc1SC(Sc1ccccc1C)(Sc1ccccc1C)Sc1ccccc1C
inactive: [4] 98 % of control | [5] 88 % of control | [6] 95 % of control

CC(C)C(NC(=O)C1CSC(C)(C)N1C=O)C(=O)OC1CCCCC1 (stereo not drawn)
inactive: [7] 97 % of control | [8] 101 % of control | dose: 400.0 mg/kg/injection, schedule: Q04DX003 (ip), vehicle: saline with Tween-80 90 % of control

Cc1c([N+](=O)[O-])cc(C(=O)c2ccccc2C(=O)O)cc1[N+](=O)[O-]
inactive: dose: 75.0 mg/kg/injection, schedule: Q04DX003 (ip), vehicle: Klucel (hydroxypropylcellulose) (HPC) 98 % of control | dose: 150.0 mg/kg/injection, schedule: Q04DX003 (ip), vehicle: Klucel (hydroxypropylcellulose) (HPC) 91 % of control | dose: 300.0 mg/kg/injection, schedule: Q04DX003 (ip), vehicle: Klucel (hydroxypropylcellulose) (HPC) 91 % of control

O=C(O)c1ccccc1Cc1ccc2c(c1)Cc1ccccc1-2
inactive: [9] 92 % of control | [10] 94 % of control | [11] 113 % of control

C#CC(C)N1CCC2(CC1)C(=O)NCN2c1ccccc1 (stereo not drawn)
inactive: [4] 98 % of control | [5] 97 % of control | [6] 95 % of control

Cc1cc(P(=O)(O)O)ccc1[N+](=O)[O-]
inactive: dose: 75.0 mg/kg/injection, schedule: Q01DX001 (ip), vehicle: saline 95 % of control | dose: 150.0 mg/kg/injection, schedule: Q01DX001 (ip), vehicle: saline 88 % of control | dose: 300.0 mg/kg/injection, schedule: Q01DX001 (ip), vehicle: saline 96 % of control

COc1ccc(C(O)CN)cc1 (stereo not drawn)
inactive: dose: 50.0 mg/kg/injection, schedule: Q01DX009 (ip), vehicle: saline 93 % of control | [12] 102 % of control | [13] 105 % of control | [14] 95 % of control and 102 % of control | [15] 103 % of control

O=C(c1ccc([N+](=O)[O-])cc1)c1ccc([N+](=O)[O-])cc1
inactive: dose: 100.0 mg/kg/injection, schedule: Q04DX002 (ip), vehicle: saline with Tween-80 90 % of control | dose: 200.0 mg/kg/injection, schedule: Q04DX002 (ip), vehicle: saline with Tween-80 90 % of control | dose: 400.0 mg/kg/injection, schedule: Q04DX002 (ip), vehicle: saline with Tween-80 101 % of control

C/C(=C/C=C(c1ccccc1)c1ccccc1)C1CCC2C3CCC4CC5CCC4(C)C3(O5)C(=O)CC12C (stereo not drawn)
inactive: dose: 100.0 mg/kg/injection, schedule: Q04DX003 (sc), vehicle: steriod suspending solution 96 % of control | dose: 200.0 mg/kg/injection, schedule: Q04DX003 (sc), vehicle: steriod suspending solution 93 % of control | dose: 400.0 mg/kg/injection, schedule: Q04DX003 (sc), vehicle: steriod suspending solution 93 % of control

Oc1ccc(C=NCC2CCCC[N-]2)c(O)c1.Oc1ccc(C=NCC2CCCC[N-]2)c(O)c1.[Ni+2] (stereo not drawn)
inactive: [7] 95 % of control | [8] 87 % of control

Cc1ccccc1-c1c2ccccc2c2ccccc2[n+]1[O-]
inactive: [16] 101 % of control | [1] 101 % of control | [2] 108 % of control

O=C(CBr)CCS(=O)(=O)c1ccc(Cl)cc1
inactive: dose: 5.0 mg/kg/injection, schedule: Q01DX009 (ip), vehicle: saline with Tween-80 102 % of control | dose: 5.0 mg/kg/injection, schedule: Q04DX003 (ip), vehicle: saline with Tween-80 101 % of control | dose: 10.0 mg/kg/injection, schedule: Q01DX009 (ip), vehicle: saline with Tween-80 104 % of control | dose: 10.0 mg/kg/injection, schedule: Q04DX003 (ip), vehicle: saline with Tween-80 103 % of control | dose: 20.0 mg/kg/injection, schedule: Q01DX009 (ip), vehicle: saline with Tween-80 97 % of control | dose: 20.0 mg/kg/injection, schedule: Q04DX003 (ip), vehicle: saline with Tween-80 97 % of control

NC(=O)N/N=C1/CCCC(C(=O)O)C1 (stereo not drawn)
inactive: [4] 105 % of control | [17] 102 % of control | [5] 109 % of control | [18] 98 % of control | [6] 103 % of control | [19] 100 % of control

O=C(CCCCC(=O)N=C(c1ccccc1)c1ccccc1)N=C(c1ccccc1)c1ccccc1
inactive: dose: 222.0 mg/kg/injection, schedule: Q01DX Z (ip), vehicle: methylcellulose (MC) 93 % of control | dose: 333.0 mg/kg/injection, schedule: Q01DX Z (ip), vehicle: methylcellulose (MC) 98 % of control | dose: 500.0 mg/kg/injection, schedule: Q01DX Z (ip), vehicle: methylcellulose (MC) 97 % of control

CC1(NCc2ccc(Cl)cc2)COP(=O)(NCc2ccccc2)OC1 (stereo not drawn)
inactive: dose: 50.0 mg/kg/injection, schedule: Q01DX001 (ip), vehicle: saline 101 % of control | dose: 100.0 mg/kg/injection, schedule: Q01DX001 (ip), vehicle: saline 106 % of control | dose: 200.0 mg/kg/injection, schedule: Q01DX001 (ip), vehicle: saline 95 % of control | dose: 400.0 mg/kg/injection, schedule: Q01DX001 (ip), vehicle: saline 98 % of control

O=C1OC2(CCCCC2)c2ccccc21
inactive: [17] 105 % of control | [18] 95 % of control | [19] 105 % of control

O=c1nc(NC2OC(CO)C(O)C2O)ccn1C1OC(CO)C(O)C1O (stereo not drawn)
inactive: dose: 100.0 mg/kg/injection, schedule: Q01DX005 (ip), vehicle: saline 102 % of control | dose: 200.0 mg/kg/injection, schedule: Q01DX005 (ip), vehicle: saline 108 % of control

CCCC1=C(CCC)C1C(=O)O
inactive: [16] 91 % of control | [1] 100 % of control | [17] 103 % of control | [2] 88 % of control | [18] 96 % of control

CCCC[P+](C)(CCCC)CCCC
inactive: dose: 8.8 mg/kg/injection, schedule: Q01DX Z (ip), vehicle: saline 98 % of control | dose: 13.3 mg/kg/injection, schedule: Q01DX Z (ip), vehicle: saline 93 % of control | dose: 20.0 mg/kg/injection, schedule: Q01DX Z (ip), vehicle: saline 86 % of control

CCCCCCCCCCCCCCCCCCNC(=S)SCCCC
inactive: dose: 400.0 mg/kg/injection, schedule: Q04DX002 (ip), vehicle: saline + alcohol 100 % of control

Cc1ccc(Cl)cc1NC(=O)c1ccccc1Cl
inactive: [1] 100 % of control | [12] 100 % of control | [13] 95 % of control | [2] 94 % of control | [14] 105 % of control | [15] 122 % of control | [3] 87 % of control | dose: 400.0 mg/kg/injection, schedule: Q01DX009 (ip), vehicle: saline 100 % of control | dose: 400.0 mg/kg/injection, schedule: Q04DX003 (ip), vehicle: saline 111 % of control

COC(=O)c1ccc2cc(OC)cc([N+](=O)[O-])c2n1
inactive: dose: 50.0 mg/kg/injection, schedule: Q01DX001 (ip), vehicle: carboxymethylcellulose (CMC) 87 % of control | [9] 93 % of control | [10] 102 % of control | [11] 93 % of control
